The values below come from patent publication US6403574B1, “Azetidinecarboxamide derivatives for treating CNS disorders” (Vernalis Research Limited, priority 1998, dated 2002).

Data set [1] has as its system 3-MPA-induced seizures in T/O strain mice. In words: Antagonism of 3-MPA-induced seizures. The data set is classed as in vivo, mouse. The settings on record: test drug 30 mg/kg p.o. 60 min before 3-MPA i.v. How it is done: Antagonism of 3-MPA-Induced Seizures Several animal seizure models are available for the screening and characterisation of anticonvulsant (antiepileptic) drugs. Most models employ a chemical convulsant to induce seizures and the anticonvulsant potencies of novel compounds are measured in terms of their ability to increase the dose of convulsant required to induce a seizure response (or to prolong the latency to seizure onset following a bolus dose of the convulsant). Most chemical convulsants work by blocking the neurotransmitter function of gamma-aminobutyric acid (GABA), the predominant inhibitory neurotransmitter in the mammalian brain. This can be achieved by blocking the postsynaptic action of GABA using pentylenetetrazol or bicuculline, or via a presynaptic action using a GABA synthesis inhibitor to decrease GABA release into the synapse. In this case, the inhibitor of glutamate decarboxylase (GAD), 3-mercaptopropionic acid (3-MPA), was used as the convulsant challenge agent. […] Male albino T/O strain mice (obtained from Tuck) weighing 28-40 g were used in these studies. Animals were assigned randomly to treatment groups and vehicle or test drug (at a dose of 30 mg/kg) were administered p.o. to groups of 12 animals 60 min before the administration of a bolus dose of 3-MPA intravenously. Immediately following 3-MPA administration, each mouse was placed individually into a cage for observation. The seizure response of each animal was scored quantally as present or absent (response or non-response) during the 5 min period immediately following 3-MPA administration. A seizure response was defined as the onset of the initial clonic phase of the seizure (abrupt loss of righting reflex accompanied by vocalisation). The seizure threshold (in terms of mg/kg i.v. of 3-MPA required to evoke a seizure response) was determined in each treatment group by a sequential up/down method followed by modified probit analysis of the quantal data. A range of doses of 3-MPA was prepared (12.5-200.0 mg/kg i.v.) increasing by a constant geometric factor […], which was found in pilot studies to generate suitable data for analysis by this method. In these studies, 3-MPA was obtained from Sigma. Test compounds were prepared as solutions dissolved in 45% w/v aqueous 2-hydroxypropyl-β-cyclodextrin. 3-MPA was dissolved in isotonic saline and its pH adjusted to 6 using 1M sodium hydroxide solution. Drugs were administered in a dose volume of 10 ml/kg body weight. SC=seizure threshold after treatment with test drug SV=seizure threshold in vehicle treated group

The next data set has as its target GABAA receptor. In words: Binding affinity to the GABAA receptor with [35S]-TBPS. The settings on record: membranes from rat fore-brain; [35S]-TBPS 1 nM; read-out: IC50, concentration required to displace 50% of the specific [35S]-TBPS binding. The procedure:
Measurement of Binding Affinity to the GABAA Receptor with [^35S]-TBPS
The ability of test compounds to bind to the GABAA receptor was measured in membranes prepared from rat fore-brain using the procedure described by Green et al (Green, A. R., Misra, A., Murray, T. K., Snape, M. F. & Cross, A. J. Neurophamacology, 1996, 35, 1243-1250).
Binding assays were performed in plastic microtitre plates. In each study total assay volume contained [^35S]-TBPS (1 nM final concentration), membrane preparation and displacing drugs where appropriate. Drug solutions were prepared at a concentration of 10 mM in an appropriate solvent (EtOH, DMSO or H2O) and then diluted with assay buffer. Non-specific binding was determined using GABA. The free ligand concentration was determined by counting aliquots of the [^35S]-TBPS solution. The concentration of test compounds required to displace 50% of the specific binding (IC50) was determined from displacement curves.

Data set [2] concerns elevated zero-maze model of anxiety. The experiment in a line: Anxiolytic activity in the elevated zero-maze model. Type of data set: in vivo, rat. The settings on record: dose of 30 mg/Kg, orally 1 hour prior to zero-maze testing. From the text: Measurement of Anxiolytic Activity in Mice Using the Elevated Zero-maze Model
Food and water are made freely available.
The maze is cleaned with a 5% methanol/water solution and dried thoroughly between test sessions.

`C=CCNC(=O)N1CC(OCc2ccc(C(C)(C)C)cc2)C1` [Example 41] gave a melting point of 79 to 80 °C.

Turning to `C=CCNC(=O)N1CC(OCc2ccc(C#N)cc2)C1` [Example 10], the melting point lay in the range of 95 to 96 °C.

For `C[C@H](O)CNC(=O)N1CC(OCc2cccc(C(F)(F)F)c2)C1` [Example 18], the melting point fell in the range of 67 to 68 °C.

Turning to `C=CCNC(=O)N1CC(OCc2cccc(C(F)(F)F)c2)C1` [Example 3, 3-(3-(Trifluoromethyl)benzyloxy)-N-(2-propenyl)azetidine-1-carboxamide], the melting point amounted to 108 °C. Further, the “SC = seizure threshold after treatment with test drug” value (from here on “SC = seizure threshold”) in data set [1] was 129.3 mg/kg i.v. of 3-MPA. In addition, the IC50 at GABAA receptor was 87 µM.

Compound `C#CCNC(=O)N1CC(OCc2ccc(F)cc2)C1` [Example 43] came in with a melting point of 94 to 96 °C.

In turn, `C=CCNC(=O)N1CC(OCc2cccc(Cl)c2)C1` [Example 14] came in with a melting point of 67 to 68 °C.

Turning to `C=CCNC(=O)N1CC(OCc2ccc(Cl)cc2Cl)C1` [Example 30], the melting point came to 100 °C.

Consider `C[C@@H](O)CNC(=O)N1CC(OCc2ccc(Cl)c(Cl)c2)C1` [Example 22], for which the melting point fell in the range of 88 to 89 °C.

Compound `C=CCNC(=O)N1CC(OCc2ccc(Cl)c(Cl)c2)C1` [Example 2, 3-(3,4-Dichlorobenzyloxy)-N-(2-propenyl)azetidine-1-carboxamide] yielded a melting point of 88 to 89 °C. Moreover, the “SC = seizure threshold” value in data set [1] is given as 66.7 mg/kg i.v. of 3-MPA. In addition, the IC50 on GABAA receptor was 56 µM.

Compound `C=CCNC(=O)N1CC(OCc2ccc(Cl)cc2)C1` [Example 1, 3-(4-Chlorobenzyloxy)-N-(2-propenyl)azetidine-1-carboxamide] returned a melting point of 110 to 111 °C. Further, the “SC = seizure threshold” value in data set [1] is recorded as 35.98 mg/kg i.v. of 3-MPA. Besides, in data set [2], the “Anxiolytic activity (increase in the frequency of head dips)” value is “effective”.

In turn, `C=CCNC(=O)N1CC(OCc2ccccc2)C1` [Example 26] registered a melting point of 76 to 77 °C.

`C=CCNC(=O)N1CC(OCc2ccc3ccccc3c2)C1` [Example 12] displayed a melting point of 141 to 142 °C.

In the case of `C=CCNC(=O)N1CC(OCc2cc(F)ccc2F)C1` [Example 29], the melting point was found to be 75 °C.

`C#CCNC(=O)N1CC(OCc2ccc(C(C)(C)C)cc2)C1` [Example 38] registered a melting point of 94 to 96 °C.

In the case of `C#CCNC(=O)N1CC(OCc2ccc(Cl)cc2)C1` [Example 37], the melting point lay in the range of 123 to 124 °C.

Turning to `C=CCNC(=O)N1CC(OCc2cc(F)cc(F)c2)C1` [Example 31], the melting point worked out at 79 °C.

Take `C=CCNC(=O)N1CC(OCc2cc(C(F)(F)F)cc(C(F)(F)F)c2)C1` [Example 35]: the melting point is 80.5 to 81.5 °C.

`C[C@@H](O)CNC(=O)N1CC(OCc2cccc(C(F)(F)F)c2)C1` [Example 19] registered a melting point of 67 to 68 °C.

In turn, `C=CCNC(=O)N1CC(OCc2ccc(-c3ccccc3)cc2)C1` [Example 11] returned a melting point of 160 °C.

On to `C=CCNC(=O)N1CC(OCc2ccccc2C(F)(F)F)C1` [Example 28], for which the melting point stood at 63 °C.

Consider `C#CCNC(=O)N1CC(OCc2cccc(C(F)(F)F)c2)C1` [Example 25], for which the melting point fell in the range of 90 to 91 °C.

As for `C=CCNC(=O)N1CC(OCc2ccc(C(F)(F)F)cc2)C1` [Example 4, 3-(4-(Trifluoromethyl)benzyloxy)-N-(2-propenyl)azetidine-1-carboxamide], the melting point is 120 °C. For the same compound, the “SC = seizure threshold” value in data set [1] is recorded as 75.7 mg/kg i.v. of 3-MPA. Further, the IC50 on GABAA receptor worked out at 91 µM.

`CCCNC(=O)N1CC(OCc2ccc(Cl)c(Cl)c2)C1` [Example 13] gave a melting point of 89 to 90 °C.

Regarding `C[C@@H](O)CNC(=O)N1CC(OCc2ccc(C(F)(F)F)cc2)C1` [Example 20], the melting point is 97 to 98 °C.

On to `C[C@@H](O)CNC(=O)N1CC(OCc2ccc(F)cc2)C1` [Example 40], for which the melting point was in the range of 72 to 73 °C.

`C[C@H](O)CNC(=O)N1CC(OCc2ccc(Cl)cc2)C1` [Example 36] returned a melting point of 76 to 78 °C.

`C=CCNC(=O)N1CC(OCc2ccc(F)cc2F)C1` [Example 34] registered a melting point of 91 to 92.5 °C.

Turning to `C=CCNC(=O)N1CC(OC(c2ccc(Cl)cc2)c2ccc(Cl)cc2)C1` [Example 6, 3-(Bis(4-chlorophenyl)methoxy)-N-(2-propenyl)azetidine-1-carboxamide], the IC50 on GABAA receptor was 64 µM.

On to `C=CCNC(=O)N1CC(OCc2ccc(F)cc2)C1` [Example 5, 3-(4-Fluorobenzyloxy)-N-(2-propenyl)azetidine-1-carboxamide], for which the “SC = seizure threshold” value in data set [1] is 42.8 mg/kg i.v. of 3-MPA.

In turn, `C[C@H](O)CNC(=O)N1CC(OCc2ccc(Cl)c(Cl)c2)C1` [Example 23] came in with a melting point of 88 to 89 °C.

`CCCNC(=O)N1CC(OCc2ccc(C(F)(F)F)cc2)C1` [Example 16]: the melting point is 128 to 129 °C.

For the compound `C[C@H](O)CNC(=O)N1CC(OCc2ccc(Cl)cc2)C1` [Example 24], the melting point was in the range of 85 to 86 °C.

Regarding `C[C@H](O)CNC(=O)N1CC(OCc2ccc(F)cc2)C1` [Example 27], the melting point lay within 73 to 74 °C.

With `C=CCNC(=O)N1CC(OCc2ccc(F)c(F)c2)C1` [Example 33], the melting point is 82.5 to 85 °C.

Compound `CCCNC(=O)N1CC(OCc2cccc(C(F)(F)F)c2)C1` [Example 17] showed a melting point of 62 to 63 °C.

Consider `C[C@@H](O)CNC(=O)N1CC(OC(c2ccc(Cl)cc2)c2ccc(Cl)cc2)C1` [Example 7, (R)-3-(Bis(4-chlorophenyl)methoxy)-N-(2-hydroxypropyl)azetidine-1-carboxamide], for which, at GABAA receptor, the IC50 is 32 µM.

In turn, `C=CCNC(=O)N1CC(OCc2cccc(F)c2)C1` [Example 15] returned a melting point of 59 to 60 °C.

The compound `C[C@H](O)CNC(=O)N1CC(OCc2ccc(C(F)(F)F)cc2)C1` [Example 21] showed a melting point of 97 to 98 °C.

Usually melting point stands for the temperature, or range, at which the solid turns liquid.
